# Measured values published in patent US12122761B2, “2-azaspiro[3.4]octane derivatives as M4 agonists” (NOVARTIS AG, priority 2019, dated 2024).
# Read-outs that look alike come from different tables or passages of the source.
# Columns and labels:
# Type in all cases: cell-based
# [1] = target: T1, human cloned CHRM2 receptor (M2_CHO cells) (Homo sapiens, UniProt P08172); experiment: CHRM2 Ca++ Flux Assay (agonist mode, FDSS 7000EX); conditions: for M2 FDSS PA: Percent Activity measured to EC100 of Carbachol; for EC50: agonist mode, geometric mean if tested more than once, read-out: M2 FDSS EC50
# T1 construct: expressed in transfected cells; host or cells: CHO-K1
# T1 sequence (P08172 1-466): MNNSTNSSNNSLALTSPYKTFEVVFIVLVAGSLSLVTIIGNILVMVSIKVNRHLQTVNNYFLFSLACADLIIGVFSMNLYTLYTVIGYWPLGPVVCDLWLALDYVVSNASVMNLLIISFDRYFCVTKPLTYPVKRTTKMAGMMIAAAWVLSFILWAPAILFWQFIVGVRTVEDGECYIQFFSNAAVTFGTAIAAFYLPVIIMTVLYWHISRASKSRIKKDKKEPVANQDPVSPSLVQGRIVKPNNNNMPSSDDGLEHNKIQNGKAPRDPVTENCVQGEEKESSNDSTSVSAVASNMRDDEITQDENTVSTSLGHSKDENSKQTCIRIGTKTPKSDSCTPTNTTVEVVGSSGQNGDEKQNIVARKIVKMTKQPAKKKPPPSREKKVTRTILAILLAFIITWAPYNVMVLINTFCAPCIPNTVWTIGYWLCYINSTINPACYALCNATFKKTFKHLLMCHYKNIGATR
# Description: (§1) The above examples were characterized by measuring the intracellular mobilization of Ca++ ions caused by signaling events mediated by the receptor. The Intra-cellular Calcium flux levels were captured by the highly sensitive Ca++ indicator, Calcium Assay Kit (BD Biosciences, Catalog Number 640178). The fluorescent activity from all receptors were monitored by the fluorescent imager, FDSS 7000EX (Hamamatsu) over a span of 3 minutes.
# (§2) CHO-K1 cells stably expressing the human cloned CHRM2 receptor (M2_CHO cells) were grown and maintained in a monolayer culture with F12/HAM (Life Technologies) supplemented with 10% Fetal Bovine Serum, 1× Pen-Strep, and 0.4 mg/mL Geneticin in a humidified atmosphere (5% CO2) at 37° C. The cultures were grown to 80-9 0% confluency in T150 flasks (Corning) and washed with 1×DPBS and lifted with 0.05% Trypsin (Life Technologies). The cells were then spun (1K rpm, 3 minutes) and frozen using Recovery Cell Culture Freezing Media (Gibco Technologies). Cells were stored in liquid nitrogen and thawed a day before the assay.
# Prior to the day of the assay, stable M2 CHO cells were thawed and plated on Greiner 384 well TC treated plate at a density of 12K cells/well and kept overnight in a humidified atmosphere (5% CO2) at 37° C. The following day, the cells were loaded with Ca^++ dye (BD Biosciences) using Loading Buffer (HBSS +Ca/+Mg, 20 mM HEPES, 2.5 mM Probenecid) and placed back in cell incubator for a minimum of 1 hour and maximum of 2 hours. After incubation, the dye was replaced with Assay Buffer (HBSS −Ca/−Mg, 20 mM HEPES, 2.5 mM Probenecid) supplemented with 20 μM ATP (Sigma Aldrich) and kept at room temperature for 60 minutes prior before running on cell imager. The FDSS 7000EX (Hamamatsu) was used to acquire Ca^++ traces from cells in response to compound treatment and the data was used to generate dose response curves in agonist mode. All compounds were serially diluted in DMSO then prepared in Assay Buffer for Ca^++ flux studies. The dose response curves were generated from the average of triplicate wells obtained from each data point and used a non-linear regression of four parameter dose response algorithm. The Percent Activity (PA) was measured to EC100 of Carbachol.
# [2] = target: T2, human cloned CHRM3 receptor (M3_CHO cells) (Homo sapiens, UniProt P20309); experiment: CHRM3 Ca++ Flux Assay (agonist mode, FDSS 7000EX); conditions: for M3 FDSS PA: Percent Activity measured to EC100 of Carbachol; for EC50: agonist mode, geometric mean if tested more than once, read-out: M3 FDSS EC50
# T2 construct: expressed in transfected cells; host or cells: CHO-K1
# Description: as §1
# as §2, with “CHRM3” for “CHRM2”, “(M3_CHO” for “(M2_CHO”, “assay. A similar procedure was used for cells stably expressing the human cloned CHRM5 receptor (M5_CHO).” for “assay.”
# (§3) Prior to the day of the assay, stable M3_CHO or M5_CHO cells were thawed and plated on Greiner 384 well black TC treated plates at 12K cells/well in F12/DMEM supplemented with 10% FBS (Hyclone) and kept overnight in a humidified atmosphere (5% CO2) at 37° C. The next day, cells were loaded with Ca^++ dye (BD Biosciences) using Loading Buffer (HBSS +Ca/+Mg, 20 mM HEPES, 2.5 mM Probenecid) and placed back in cell incubator for a minimum of 1 hour. After incubation, the dye was replaced with Assay Buffer (HBSS −Ca/−Mg, 20 mM HEPES, 2.5 mM Probenecid) and kept at room temperature in the dark before running on cell imager. The FDSS 7000EX (Hamamatsu) was used to acquire Ca^++ traces from cells treated with 11 point dose response of compounds in triplicate in order to generate dose response curves in agonist mode. All compounds were serially diluted in DMSO then prepared in Assay Buffer for Ca^++ flux studies. The dose response curves were generated from the average of triplicate wells obtained from each data point and used a non-linear regression of four parameter dose response algorithm. The Percent Activity (PA) was measured to EC100 of Carbachol.
# [3] = target: T3, human cloned CHRM5 receptor (M5_CHO) (Homo sapiens, UniProt P08912); experiment: CHRM5 Ca++ Flux Assay (agonist mode, FDSS 7000EX); conditions: for M5 FDSS PA: Percent Activity measured to EC100 of Carbachol; for EC50: agonist mode, geometric mean if tested more than once, read-out: M5 FDSS EC50
# T3 construct: expressed in transfected cells; host or cells: CHO (M5_CHO)
# T3 sequence (P08912 1-532): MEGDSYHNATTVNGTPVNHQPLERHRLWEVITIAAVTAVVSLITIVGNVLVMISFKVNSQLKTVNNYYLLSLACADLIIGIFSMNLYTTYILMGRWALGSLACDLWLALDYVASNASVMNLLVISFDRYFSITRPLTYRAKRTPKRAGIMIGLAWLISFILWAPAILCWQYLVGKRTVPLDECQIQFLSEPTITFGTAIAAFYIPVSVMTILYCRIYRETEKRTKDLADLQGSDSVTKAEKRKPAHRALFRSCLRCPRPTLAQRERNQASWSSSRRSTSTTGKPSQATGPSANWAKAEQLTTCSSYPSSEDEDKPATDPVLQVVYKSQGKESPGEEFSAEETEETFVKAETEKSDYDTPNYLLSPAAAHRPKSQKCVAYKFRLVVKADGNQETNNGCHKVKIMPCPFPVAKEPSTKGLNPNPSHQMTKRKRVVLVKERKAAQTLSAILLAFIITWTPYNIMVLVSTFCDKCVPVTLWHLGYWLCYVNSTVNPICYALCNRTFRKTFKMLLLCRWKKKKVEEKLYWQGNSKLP
# Description: as §1
# as §2, with “CHRM3” for “CHRM2”, “(M3_CHO” for “(M2_CHO”, “assay. A similar procedure was used for cells stably expressing the human cloned CHRM5 receptor (M5_CHO).” for “assay.”
# as §3
# T2 sequence (P20309 whole entry): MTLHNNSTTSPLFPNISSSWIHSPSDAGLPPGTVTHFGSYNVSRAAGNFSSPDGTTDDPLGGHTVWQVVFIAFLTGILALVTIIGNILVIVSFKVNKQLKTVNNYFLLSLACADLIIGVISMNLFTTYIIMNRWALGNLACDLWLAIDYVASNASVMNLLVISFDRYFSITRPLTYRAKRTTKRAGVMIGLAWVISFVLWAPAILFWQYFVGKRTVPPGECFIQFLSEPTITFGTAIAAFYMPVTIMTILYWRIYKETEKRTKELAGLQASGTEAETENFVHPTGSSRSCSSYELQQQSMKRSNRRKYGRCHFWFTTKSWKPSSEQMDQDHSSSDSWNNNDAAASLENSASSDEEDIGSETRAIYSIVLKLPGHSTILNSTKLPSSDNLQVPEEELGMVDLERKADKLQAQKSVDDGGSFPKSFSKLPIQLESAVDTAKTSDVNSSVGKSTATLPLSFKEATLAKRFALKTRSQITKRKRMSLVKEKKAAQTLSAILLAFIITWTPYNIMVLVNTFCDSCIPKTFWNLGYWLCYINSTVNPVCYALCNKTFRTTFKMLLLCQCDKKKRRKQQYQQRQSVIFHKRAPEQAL
Structure (SMILES),M2 FDSS PA [1],M3 FDSS PA [2],EC50 [2],M5 FDSS PA [3],EC50 [3],EC50 [1],M2 FDSS PA ([1]; citrate salt),EC50 ([1]; citrate salt),M5 FDSS PA ([3]; citrate salt),EC50 ([3]; citrate salt)
"O[C@H]1CC[C@@H](c2ccccc2C2CCN([C@@H]3CCC4(C3)CN(c3nnco3)C4)CC2)CC1 (single isomer, unassigned) [Example 2N, (1S,4s)-4-(2-(1-((R)-2-(1,3,4-oxadiazol-2-yl)-2-azaspiro[3.4]octan-6-yl)piperidin-4-yl)phenyl)cyclohexan-1-ol or (1R,4r)-4-(2-(1-((R)-2-(1,3,4-oxadiazol-2-yl)-2-azaspiro[3.4]octan-6-yl)piperidin-4-yl)phenyl)cyclohexan-1-ol]",0%,0%,> 25 µM,0%,> 25 µM,,,,,
"OC1CCC(c2ccccc2C2CCN([C@@H]3CCC4(C3)CN(c3nnco3)C4)CC2)CC1 (single isomer, unassigned) [Example 2O, (1s,4r)-4-(2-(1-((R)-2-(1,3,4-oxadiazol-2-yl)-2-azaspiro[3.4]octan-6-yl)piperidin-4-yl)phenyl)cyclohexan-1-ol or (1r,4r)-4-(2-(1-((R)-2-(1,3,4-oxadiazol-2-yl)-2-azaspiro[3.4]octan-6-yl)piperidin-4-yl)phenyl)cyclohexan-1-ol]",28%,0%,> 25 µM,0%,> 25 µM,0.09 µM,,,,
"O=C(N1CC2(CC[C@@H](N3CCC(c4ccccc4OCCC(F)(F)F)CC3)C2)C1)C1(F)CC1 (single isomer, unassigned) [Example 7AA, (R)-(1-fluorocyclopropyl)(6-(4-(2-(3,3,3-trifluoropropoxy)phenyl)piperidin-1-yl)-2-azaspiro[3.4]octan-2-yl)methanone or (S)-(1-fluorocyclopropyl)(6-(4-(2-(3,3,3-trifluoropropoxy)phenyl)piperidin-1-yl)-2-azaspiro[3.4]octan-2-yl)methanone]",0%,0%,> 25 µM,0%,> 25 µM,,,,,
"CC(C)(O)CCOc1ccccc1C1CCN([C@@H]2CCC3(C2)CN(C(=O)C2(F)CC2)C3)CC1 (single isomer, unassigned) [Example 7BB, (R)-(1-fluorocyclopropyl)(6-(4-(2-(3-hydroxy-3-methylbutoxy)phenyl)piperidin-1-yl)-2-azaspiro[3.4]octan-2-yl)methanone or (S)-(1-fluorocyclopropyl)(6-(4-(2-(3-hydroxy-3-methylbutoxy)phenyl)piperidin-1-yl)-2-azaspiro[3.4]octan-2-yl)methanone]",0%,0%,> 25 µM,0%,> 25 µM,,,,,
"O=C(C1COC1)N1CC2(CC[C@H](N3CCC(c4ccccc4OC(F)F)CC3)C2)C1.O=C(O)CC(O)(CC(=O)O)C(=O)O (single isomer, unassigned) [Example 8E, (S)-(6-(4-(2-(difluoromethoxy)phenyl)piperidin-1-yl)-2-azaspiro[3.4]octan-2-yl)(oxetan-3-yl)methanone or (R)-(6-(4-(2-(difluoromethoxy)phenyl)piperidin-1-yl)-2-azaspiro[3.4]octan-2-yl)(oxetan-3-yl)methanone citrate salt]",,,,,,,26%,0.096 µM,1%,2.16 µM
"O=C(C1COC1)N1CC2(CC[C@H](N3CCC(c4ccccc4OC(F)F)CC3)C2)C1.O=C(O)CC(O)(CC(=O)O)C(=O)O (single isomer, unassigned) [Example 8F, (S)-(6-(4-(2-(difluoromethoxy)phenyl)piperidin-1-yl)-2-azaspiro[3.4]octan-2-yl)(oxetan-3-yl)methanone or (R)-(6-(4-(2-(difluoromethoxy)phenyl)piperidin-1-yl)-2-azaspiro[3.4]octan-2-yl)(oxetan-3-yl)methanone citrate salt]",,,,,,,0%,,0%,> 25 µM
